Measurements reported in patent US9090576B2, “2-substituted-p-quinone derivatives for treatment of oxidative stress diseases” (Edison Pharmaceuticals, Inc., priority 2008, dated 2015).
pEC50: −log10 of the molar value.

What was measured:
Type in all cases: cell-based
[1] = tested on: Human dermal fibroblasts from Friedreich's Ataxia patients; assay: Rescue of BSO-stressed FRDA fibroblasts (Calcein AM viability); settings: BSO-stressed FRDA fibroblasts (GM04078), less than about 150 nM, read-out: EC50, protection against FRDA
How it was run: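 Patient FRDA fibroblasts (GM04078) seeded at 3,000 cells/well, given serially diluted compound from a 150 μM master solution, then stressed next day with 1 mM BSO.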

[2] = tested on: human dermal fibroblasts from Huntington's patients; assay: Rescue of BSO-stressed fibroblasts from Huntington's patients (screen as Example A); settings: Fibroblast, BSO-stressed Huntington's fibroblasts (GM 04281), less than about 150 nM, read-out: EC50, protection against Huntington's
How it was run: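 Coriell Huntington's line GM 04281 plated at 3,000 cells/well and attached overnight at 37 °C. Survival was read by Calcein AM (1.2 μM, 50-70 min, RT) fluorescence at 485/525 nm, giving EC50.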

[3] = tested on: human dermal fibroblasts from LHON patients; assay: Rescue of BSO-stressed fibroblasts from LHON patients (screen as Example A); settings: Fibroblast, BSO-stressed LHON fibroblasts (GM03858), less than about 150 nM, read-out: EC50, protection against LHON
How it was run: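 LHON patient fibroblasts (Coriell GM03858) at 3,000 cells/well were pre-treated overnight with compounds serially diluted from a 150 μM master solution. Surviving cells were stained with 1.2 μM Calcein AM for 50-70 min at RT and read by fluorescence (485/525 nm), giving EC50.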

[4] = tested on: human dermal fibroblasts from Parkinson's Disease patients; assay: Rescue of BSO-stressed fibroblasts from Parkinson's Disease patients (screen as Example A); settings: Fibroblast, BSO-stressed Parkinson's Disease fibroblasts (AG20439), less than about 150 nM, read-out: EC50, protection against PD
How it was run: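 Dermal fibroblasts from a Parkinson's Disease patient (Coriell AG20439) were plated at 3,000 cells/well, attached overnight and pre-incubated overnight with serially diluted compounds (150 μM master solution). Survival was read by 1.2 μM calcein AM (50–70 min, RT, 485/525 nm fluorescence) and converted to EC50.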

[5] = tested on: human dermal fibroblasts from CoQ10 deficient patients; assay: Rescue of BSO-stressed fibroblasts from CoQ10 deficient patients (screen similar to Example A); settings: Fibroblast, BSO-stressed fibroblasts from CoQ10 deficient patients harboring a CoQ2 mutation, less than about 150 nM, read-out: EC50, protection against CoQ10 deficiency
Experimental: A culture with FRDA fibroblasts was started from a 1 ml vial with approximately 500,000 cells stored in liquid nitrogen. Cells were propagated in 10 cm cell culture dishes by splitting every third day in a ratio of 1:3 until nine plates were available. Once confluent, fibroblasts were harvested. For 54 micro titer plates (96 well-MTP) a total of 14.3 million cells (passage eight) were re-suspended in 480 ml medium, corresponding to 100 μl medium with 3,000 cells/well. The remaining cells were distributed in 10 cm cell culture plates (500,000 cells/plate) for propagation. The plates were incubated overnight at 37° C. in an atmosphere with 95% humidity and 5% CO2 to allow attachment of the cells to the culture plate.
MTP medium (243 μl) was added to a well of the microtiter plate. The test compounds were unfrozen, and 7.5 μl of a 5 mM stock solution was dissolved in the well containing 243 μl medium, resulting in a 150 μM master solution. Serial dilutions from the master solution were made. The period between the single dilution steps was kept as short as possible (generally less than 1 second).
Plates were kept overnight in the cell culture incubator. The next day, 10 μl of a 10 mM BSO solution were added to the wells, resulting in a 1 mM final BSO concentration. Forty-eight hours later, three plates were examined under a phase-contrast microscope to verify that the cells in the 0% control (wells E1-H1) were clearly dead. The medium from all plates was discarded, and the remaining liquid was removed by gently tapping the plate inversed onto a paper towel.
100 μl of PBS containing 1.2 μM Calcein AM were then added to each well. The plates were incubated for 50-70 minutes at room temperature. After that time the PBS was discarded, the plate gently tapped on a paper towel and fluorescence (excitation/emission wavelengths of 485 nm and 525 nm, respectively) was read on a Gemini fluorescence reader. Data was imported into Microsoft Excel (EXCEL is a registered trademark of Microsoft Corporation for a spreadsheet program) and used to calculate the EC50 concentration for each compound.
Compounds of the invention were tested using a screen similar to the one described in Example A, but substituting FRDA cells with cells obtained from CoQ10 deficient patients harboring a CoQ2 mutation. The compounds were tested for their ability to rescue human dermal fibroblasts from CoQ10 deficient patients from oxidative stress.

Measured: pEC50

CC1=C(C)C(=O)C(CCCC(=O)N2CCc3ccccc3C2)=C(C)C1=O [2-(4-(3,4-dihydroisoquinolin-2(1H)-yl)-4-oxobutyl)-3,5,6-trimethylcyclohexa-2,5-diene-1,4-dione]
> 6.82: all assays above

CC1=C(C)C(=O)C(CCCC(=O)N2CCc3ccccc32)=C(C)C1=O [2-(4-(indolin-1-yl)-4-oxobutyl)-3,5,6-trimethylcyclohexa-2,5-diene-1,4-dione]
> 6.82: all assays above

CC1=C(C)C(=O)C(CCCC(=O)N2Cc3ccccc3C2)=C(C)C1=O [2-(4-(isoindolin-2-yl)-4-oxobutyl)-3,5,6-trimethylcyclohexa-2,5-diene-1,4-dione]
> 6.82: all assays above

CC1=C(C)C(=O)C(CCCC(N)=O)=C(C)C1=O [4-(2,4,5-trimethyl-3,6-dioxocyclohexa-1,4-dienyl)butanamide]
> 6.82: all assays above

CC1=C(C)C(=O)C(CCCC(=O)Nc2ccc(Cl)cc2N)=C(C)C1=O [N-(2-amino-4-chlorophenyl)-4-(2,4,5-trimethyl-3,6-dioxocyclohexa-1,4-dienyl)butanamide]
> 6.82: all assays above

CC1=C(C)C(=O)C(CCCC(=O)NCc2ccccc2Cl)=C(C)C1=O [N-(2-chlorobenzyl)-4-(2,4,5-trimethyl-3,6-dioxocyclohexa-1,4-dienyl)butanamide]
> 6.82: all assays above

CC1=C(C)C(=O)C(CCCC(=O)NCCc2ccccc2Cl)=C(C)C1=O [N-(2-chlorophenethyl)-4-(2,4,5-trimethyl-3,6-dioxocyclohexa-1,4-dienyl)butanamide]
> 6.82: all assays above

CC1=C(C)C(=O)C(CCCC(=O)Nc2ccccc2Cl)=C(C)C1=O [N-(2-chlorophenyl)-4-(2,4,5-trimethyl-3,6-dioxocyclohexa-1,4-dienyl)butanamide]
> 6.82: all assays above

CC1=C(C)C(=O)C(CCCC(=O)NCCc2ccccc2F)=C(C)C1=O [N-(2-fluorophenethyl)-4-(2,4,5-trimethyl-3,6-dioxocyclohexa-1,4-dienyl)butanamide]
> 6.82: all assays above

CC1=C(C)C(=O)C(CCCC(=O)Nc2ccccc2F)=C(C)C1=O [N-(2-fluorophenyl)-4-(2,4,5-trimethyl-3,6-dioxocyclohexa-1,4-dienyl)butanamide]
> 6.82: all assays above

COc1ccccc1NC(=O)CCCC1=C(C)C(=O)C(C)=C(C)C1=O [N-(2-methoxyphenyl)-4-(2,4,5-trimethyl-3,6-dioxocyclohexa-1,4-dienyl)butanamide]
> 6.82: all assays above

COc1ccc(NC(=O)CCCC2=C(C)C(=O)C(C)=C(C)C2=O)cc1OC [N-(3,4-dimethoxyphenyl)-4-(2,4,5-trimethyl-3,6-dioxocyclohexa-1,4-dienyl)butanamide]
> 6.82: all assays above

CC1=C(C)C(=O)C(CCCC(=O)Nc2cccc(Cl)c2)=C(C)C1=O [N-(3-chlorophenyl)-4-(2,4,5-trimethyl-3,6-dioxocyclohexa-1,4-dienyl)butanamide]
> 6.82: all assays above

CC1=C(C)C(=O)C(CCCC(=O)NCCc2cccc(F)c2)=C(C)C1=O [N-(3-fluorophenethyl)-4-(2,4,5-trimethyl-3,6-dioxocyclohexa-1,4-dienyl)butanamide]
> 6.82: all assays above

COc1cccc(NC(=O)CCCC2=C(C)C(=O)C(C)=C(C)C2=O)c1 [N-(3-methoxyphenyl)-4-(2,4,5-trimethyl-3,6-dioxocyclohexa-1,4-dienyl)butanamide]
> 6.82: all assays above

CC1=C(C)C(=O)C(CCCC(=O)Nc2ccc(C(F)(F)F)cc2)=C(C)C1=O [N-(4-(trifluoromethyl)phenyl)-4-(2,4,5-trimethyl-3,6-dioxocyclohexa-1,4-dienyl)butanamide]
> 6.82: all assays above

CC1=C(C)C(=O)C(CCCC(=O)NCc2ccc(Cl)cc2)=C(C)C1=O [N-(4-chlorobenzyl)-4-(2,4,5-trimethyl-3,6-dioxocyclohexa-1,4-dienyl)butanamide]
> 6.82: all assays above

CC1=C(C)C(=O)C(CCCC(=O)NCCc2ccc(Cl)cc2)=C(C)C1=O [N-(4-chlorophenethyl)-4-(2,4,5-trimethyl-3,6-dioxocyclohexa-1,4-dienyl)butanamide]
> 6.82: all assays above

CC1=C(C)C(=O)C(CCCC(=O)N(C)c2ccc(Cl)cc2)=C(C)C1=O [N-(4-chlorophenyl)-N-methyl-4-(2,4,5-trimethyl-3,6-dioxocyclohexa-1,4-dienyl)butanamide]
> 6.82: all assays above
